Each structure is given as a SMILES string.

The test concerns the target Clostridium perfringens CGH (Clostridium perfringens, UniProt P54965). The class given is binding. The following applies: 0-500 μM, 37° C., 24 h, in-gel fluorescence.

Clostridium perfringens CGH, sequence (P54965 whole entry, looked up): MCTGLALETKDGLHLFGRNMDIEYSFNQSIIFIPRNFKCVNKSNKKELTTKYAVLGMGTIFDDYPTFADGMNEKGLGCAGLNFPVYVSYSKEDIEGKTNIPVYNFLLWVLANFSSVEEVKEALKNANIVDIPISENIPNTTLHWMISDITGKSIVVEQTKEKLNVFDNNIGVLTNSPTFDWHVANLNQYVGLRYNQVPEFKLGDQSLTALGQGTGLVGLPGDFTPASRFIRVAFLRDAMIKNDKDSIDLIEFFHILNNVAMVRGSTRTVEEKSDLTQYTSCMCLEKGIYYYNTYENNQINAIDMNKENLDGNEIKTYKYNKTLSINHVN

Turning to `Cc1cccc(C)c1C(=O)OCC(=O)CC[C@@H](C)[C@H]1CC[C@H]2[C@@H]3[C@H](O)C[C@@H]4C[C@H](N=[N+]=[N-])CC[C@]4(C)[C@H]3CC[C@]12C` [CDCA-AOMK, N3-CDCA-AOMK], the “labeling of C. perfringens BSH” value is reported as “label Clostridium perfringens bile salt hydrolase (BSH)”.
Under `Cc1cccc(C)c1C(=O)OCC(=O)CC[C@@H](C)[C@H]1CC[C@H]2[C@@H]3CC[C@@H]4C[C@H](N=[N+]=[N-])CC[C@]4(C)[C@H]3C[C@H](O)[C@]12C` [DCA-AOMK, N3-DCA-AOMK] stands “label Clostridium perfringens bile salt hydrolase (BSH)”.

For the origin of these results see patent US12215127B2 (priority 2020, dated 2025).
